Molecules are shown by their SMILES.

What all share (format): in vivo
Experiment [1] relates to Hybrid Sweet Corn Seedlings (cv. Silver Queen). The experiment is described as follows: Greenhouse trial: dry weight and water uptake of seedlings after foliar spraying. The following applies: for % increase (dry weight) / % increase (water uptake) / Dry weight / Water uptake: metal ion 9 mM (none in the last line) with 1-triacontanol 0.1 mg/liter, pH 8 to 10; for Dry weight: control 0.86 g; for Water uptake: control 8.7 g; for Increase in dry weight: 1-triacontanol 0.1 mg/liter, additive 9 mM (none in the last line). As to the method: (§1) In general, greenhouse trials were conducted as follows: eight to twelve seeds were sown per pot in Peat-Lite® Mix and received an average of 100 ml of water per day. After plants had the third true leaf (average), the various formulations were applied to the leaves as a fine mist at air temperatures listed in Table 1. Temperatures above 20° C., preferably 25°-30° C., are preferred.
(§2) The 1-triacontanol formulation most generally used consisted of a concentrate containing 5 mg of 1-triacontanol dissolved in 1 liter of acetone, with 20 ml of the concentrate being further dissolved to 1 liter with water having a pH between 8 and 10, with over a pH of 11 also being effective. The pH was adjusted with aqueous NaOH and the concentrate added just prior to spraying.
(§3) When other plant growth substances were added to the formulations, these were added either to the concentrate in the polar organic solvent or alternatively in the aqueous solution, depending on the solubility of the plant growth substance. All metal salts were added to the water used to spray the 1-triacontanol formulations. After spraying, preferably about four to nine days or more, plants were harvested with roots, and fresh weights were obtained. Plants were then dried in an oven, preferably at a temperature below 100° C., until constant weight was obtained, and dry weight values were obtained for each plot. Subtraction of the dry weights from the fresh weights gave the water uptake weights (water content) of each plot. The weights of the above mentioned seedlings were compared to the control weights to obtain the percent increases.
(§4) It is particularly advantageous to arrange each of the potted plants in size range categories corresponding to the number of replications used. For example, if five replications are employed, plants are divided into five size categories, normally measured by the height of the plants. Treatments are then assigned randomly within each block (size category). This removes the variation due to plant size for statistical purposes, as is well practiced in the art. The resulting data is analyzed using any appropriate means, which may include the least significant difference method (L.S.D. method), Duncan's multiple range test, as used here (Biometrics, 11: 1 (1955)), or other means.

In experiment [2] the test system is Field Corn Seedlings (cv. Trojan TXS 94, Pioneer 3780, WF9 X Bear 38). Described as above. The following applies: for Dry wt. increase: 1-triacontanol 0.1 mg/liter. As to the method:
as §1, §2, §3, §4

For experiment [3], the system named is Hybrid Sweet Corn Seedlings (cv. Silver Queen). As to the kind of experiment: Lengths of stems and total plant length of seedlings sprayed Day 7. The following applies: T = 1-triacontanol 0.1 mg/liter.
The mark [4] stands for this setting: 14-day old seedlings, plant growth substance 0.01 mM, with 1-triacontanol 0.1 mg/liter.
The mark [5] stands for this setting: 14-day old seedlings, plant growth substance 0.01 mM, without 1-triacontanol.
Where [6] appears, read: 14-day old seedlings, Formulation 4.
Where [7] appears, read: cv. Trojan TXS 94, brassinosteroid 0.4 μM w/o triacontanol, Formulation 7.
Where [8] appears, read: cv. Trojan TXS 94, brassinosteroid 0.4 μM with 1-triacontanol 0.5 mg/liter containing 10 mM CaCl2, Formulation 7.
The mark [9] stands for this setting: cv. Trojan TXS 94, metal salt 1 mM (1 ea. for the mixture), Formulation 4.
[10] abbreviates: 14-day old seedlings, metal salt 1 mM (1 ea. for the mixture), with 1-triacontanol 0.1 mg/liter, Formulation 4.
The mark [11] stands for this setting: 14-day old seedlings, metal salt 5 mM, with 1-triacontanol 0.1 mg/liter, Formulation 4.
Where [12] appears, read: 14-day old seedlings, metal salt 5 mM, with 1-triacontanol 0.1 mg/liter, Formulation 11 (chloroform, Tween-20).
[13] abbreviates: 14-day old seedlings, metal salt 10 mM, with 1-triacontanol 0.1 mg/liter, Formulation 4.
[14] abbreviates: 14-day old seedlings, metal salt 10 mM, with 1-triacontanol 0.1 mg/liter, Formulation 11 (chloroform, Tween-20).
Where [15] appears, read: 14-day old seedlings, metal salt 10 mM, without 1-triacontanol, Formulation 4.
[16] abbreviates: plant growth substance 0.04 mM, CaCl2 10 mM, 1-triacontanol 0.5 mg per liter, pH 8.
[17] abbreviates: plant growth substance 0.04 mM, CaCl2 50 mM, 1-triacontanol 0.5 mg per liter, pH 8.
Where [18] appears, read: 14-day old seedlings, plant growth substance 0.10 mM, with 1-triacontanol 0.1 mg/liter.
The mark [19] stands for this setting: 14-day old seedlings, plant growth substance 0.10 mM, without 1-triacontanol.

With `O=C(O)COc1ccc(Cl)cc1Cl` [2,4-D, 2,4-dichlorophenoxyacetic acid, reference compound], in experiment [1] (setting [4]), the “Increases, H2O uptake” value is given as -13% and the “Increases, dry wt.” value was “+17%”. In experiment [1] (setting [5]), the “Increases, H2O uptake” value was -9% and the “Increases, dry wt.” value is listed as “+10%”. Besides, the “Increase in dry weight over controls” value in experiment [1] (formulations containing metal ions and synthetic auxin, cv. Silver Queen) is listed as 100%.

For the compound `[Ba+2]` [Ba^+2], in experiment [1] (setting [6]), the “% increase (dry weight)” value is on record as “+35%”, the “% increase (water uptake)” value is reported as “+48%”, the Dry weight is given as 1.16 g and the Water uptake is 12.9 g.

`CC(C)[C@@H](C)[C@H](O)[C@@H](O)[C@@H](C)[C@H]1CC[C@H]2[C@@H]3COC(=O)[C@H]4C[C@H](O)[C@H](O)C[C@]4(C)[C@H]3CC[C@]12C` [Brassinosteroid, 2α,3α,22α,23α-tetrahydroxy-24α-methyl-B-hoo-5α-cholestan-6-one, reference compound]: in experiment [2] (setting [7]), the “Increases, dry wt.” value is given as “+11%” and the “Increases, water uptake” value is on record as “+8%”. In experiment [2] (setting [8]), the “Increases, dry wt.” value is “+19%” and the “Increases, water uptake” value was “+10%”.

For `[Ca+2].[Cl-].[Cl-]` [CaCl2], the Dry wt. increase in experiment [2] (cv. Pioneer 3780, metal salt 0 mM, Formulation 11) is reported as -5%; in experiment [2] (cv. Pioneer 3780, metal salt 1 mM, Formulation 4) it was “+19%”; in experiment [2] (cv. Pioneer 3780, metal salt 7.5 mM, Formulation 4, NAA 1.0 μM), “+32%”; in experiment [2] (cv. Trojan TXS 94, metal salt 0.5 mM, Formulation 4) it was “+22%”; in experiment [2] (setting [9]), 20-30%; in experiment [2] (cv. Trojan TXS 94, metal salt 1 mM, Formulation 11), -10%. Further, the Dry wt. increase result in experiment [2] (cv. Trojan TXS 94, metal salt 1.25 mM, Formulation 4) is “+30%”; in experiment [2] (cv. Trojan TXS 94, metal salt 5 mM, Formulation 7, 2,4,5-T 10.0 μM), “+22%”; in experiment [2] (cv. Trojan TXS 94, metal salt 5 mM, Formulation 7, 2,4-D 10.0 μM), “+23%”; in experiment [2] (cv. Trojan TXS 94, metal salt 6 mM, Formulation 7, NAA 1.0 μM) it was “+28%”; in experiment [2] (cv. Trojan TXS 94, metal salt 3-5 mM, Formulation 7, IAA 10.0 μM), 20-30%; in experiment [2] (cv. WF9 X Bear 38, metal salt 1 mM, Formulation 4), “+8%”. In addition, the “Increase in dry weight” value in experiment [1] (Formulation 4) is listed as “+50%”. The “Increases, H2O uptake” value in experiment [1] (setting [10]) is recorded as “+35%”; in experiment [1] (setting [11]) it was “+21%”; in experiment [1] (setting [12]), “+6%”; in experiment [1] (setting [13]), “+11%”; in experiment [1] (setting [14]) it was “+9%”; in experiment [1] (setting [15]) it was -2%. The “Increases, dry wt.” value is “+42%” in experiment [1] (setting [10]); “+50%” in experiment [1] (setting [11]); “+5%” in experiment [1] (setting [12]); “+65%” in experiment [1] (setting [13]); -5% in experiment [1] (setting [14]); “+4%” in experiment [1] (setting [15]).

For the compound `[Ca+2]` [Ca^+2], in experiment [1] (setting [6]), the “% increase (dry weight)” value is listed as “+50%”, the “% increase (water uptake)” value is reported as “+16%”, the Dry weight turned out to be 1.29 g and the Water uptake stood at 10.1 g.

Consider `[Cd+2]` [Cd^+2], for which, in experiment [1] (setting [6]), the “% increase (dry weight)” value is given as “+58%”, the “% increase (water uptake)” value is given as “+14%”, the Dry weight was 1.36 g and the Water uptake came out at 9.9 g.

For `O=S(=O)([O-])[O-].O=S(=O)([O-])[O-].[Ce+4]` [Ce(SO4)2], in experiment [1] (setting [10]), the “Increases, H2O uptake” value is listed as “+26%” and the “Increases, dry wt.” value was “+21%”.

Regarding `N.N.N.N.N.N.[Cl-].[Cl-].[Cl-].[Co+3]` [Co(NH3)6 Cl3, reference compound], in experiment [1] (Formulation 4), the “Increase in dry weight” value is “+13%”.

`C=C1C[C@]23C[C@@]1(O)CC[C@H]2[C@@]12C=C[C@H](O)[C@@](C)(C(=O)O1)[C@H]2[C@@H]3C(=O)O` [GA3, gibberellic acid, reference compound]: the “Increases, H2O uptake” value in experiment [1] (setting [4]) was -3%; in experiment [1] (setting [5]) it was -6%; in experiment [1] (setting [16]), “+15%”; in experiment [1] (setting [17]), “+13%”. Further, the “Increases, dry wt.” value is on record as -15% in experiment [1] (setting [4]), -24% in experiment [1] (setting [5]), “+16%” in experiment [1] (setting [16]) and “+22%” in experiment [1] (setting [17]). Also, in experiment [3], the “Increase in length "a"” value was -3%. For the same compound, in experiment [3], the “Increase in length "b"” value is “+6%”. Besides, the “Length "a" (stem to the first leaf)” value in experiment [3] (control 11.5 cm) is recorded as 11.2 cm. Moreover, in experiment [3] (control 25.0 cm), the “Length "b" (total plant length)” value is on record as 26.6 cm.

As to `[Cl][La]([Cl])[Cl]` [LaCl3], the Dry wt. increase in experiment [2] (setting [9]) is given as 25-30%. In experiment [1] (setting [13]), the “Increases, dry wt.” value was “+72%”. Moreover, in experiment [1] (setting [15]), the “Increases, H2O uptake” value is recorded as -2% and the “Increases, dry wt.” value is “+5%”.

With `O=c1ccc(=O)[nH][nH]1` [MH, maleic hydrazide, reference compound], in experiment [1] (setting [18]), the “Increases, H2O uptake” value is -7% and the “Increases, dry wt.” value is listed as “+12%”. Besides, in experiment [1] (setting [19]), the “Increases, H2O uptake” value was -1% and the “Increases, dry wt.” value is reported as “+7%”.

In the case of `CC(C)CC(N)C(=O)[O-].CC(C)CC(N)C(=O)[O-].[Ca+2]` (centres unmarked) [Metal Proteinate, reference compound], the “Increase in dry weight” value in experiment [1] (Formulation 4) was “+15%”.

Turning to `[Cl-].[Cl-].[Mg+2]` [MgCl2], in experiment [1] (setting [10]), the “Increases, H2O uptake” value was “+20%” and the “Increases, dry wt.” value was “+21%”.

As to `[Mg+2]` [Mg^+2], in experiment [1] (setting [6]), the “% increase (dry weight)” value was “+73%”, the “% increase (water uptake)” value is reported as “+55%”, the Dry weight came out at 1.49 g and the Water uptake is reported as 13.5 g.

For `[Cl][Mn][Cl]` [MnCl2], in experiment [1] (setting [10]), the “Increases, H2O uptake” value is “+29%” and the “Increases, dry wt.” value is reported as “+9%”.

For the compound `[Mn+2]` [Mn^+2], in experiment [1] (setting [6]), the “% increase (dry weight)” value was “+31%”, the “% increase (water uptake)” value was “+25%”, the Dry weight turned out to be 1.13 g and the Water uptake came to 10.9 g.

For the compound `[Pb+2]` [Pb^+2], in experiment [1] (setting [6]), the “% increase (dry weight)” value was “+81%”, the “% increase (water uptake)” value was “+55%”, the Dry weight was 1.56 g and the Water uptake is reported as 13.5 g.

Turning to `[Sr+2]` [Sr^+2], in experiment [1] (setting [6]), the “% increase (dry weight)” value was “+81%”, the “% increase (water uptake)” value is recorded as “+48%”, the Dry weight stood at 1.56 g and the Water uptake worked out at 12.9 g.

Take `O=C(O)c1cc(I)cc(I)c1I` [TIBA, 2,3,5-triiodobenzoic acid, reference compound]: the “Increases, H2O uptake” value in experiment [1] (setting [18]) is “+1%”; in experiment [1] (setting [19]) it was -12%. Further, the “Increases, dry wt.” value is recorded as “+19%” in experiment [1] (setting [18]) and “+10%” in experiment [1] (setting [19]).

Consider `[Zn+2]` [Zn^+2], for which, in experiment [1] (setting [6]), the “% increase (dry weight)” value was “+38%”, the “% increase (water uptake)” value was “+21%”, the Dry weight is 1.17 g and the Water uptake is given as 10.5 g.

(Values after patent US4470840A, “1-Triacontanol plant growth stimulator formulations” (Biochemical Research Corporation, priority 1981, dated 1984).)
